Source: ChEMBL document CHEMBL1152167, “Synthesis and cytotoxic activities of 1-benzylidine substituted beta-carboline derivatives” (Bioorg Med Chem Lett, 2008)

Tests used:
Type in all cases: functional, cell-based
HeLa = test: Cytotoxicity against human HeLa cells by MTT assay
Bel-7402 = test: Cytotoxicity against human Bel7402 cells by MTT assay
BGC-823 = test: Cytotoxicity against human BGC823 cells by MTT assay
HepG2 = test: Cytotoxicity against human HepG2 cells by MTT assay
A549 = test: Cytotoxicity against human A549 cells by MTT assay
A-375 = test: Cytotoxicity against human A375 cells by MTT assay
[1] = Cytotoxicity against human 786-O cells by MTT assay; conditions: 786-0
HT-29 = test: Cytotoxicity against human HT-29 cells by MTT assay
769-P = test: Cytotoxicity against human 769-P cells by MTT assay
KB = test: Cytotoxicity against human KB cells by MTT assay

Structure (SMILES): CCCCOc1ccc2c3cc[n+](Cc4ccccc4)c(/C=C/c4ccc(OC)cc4)c3n(CCCc3ccccc3)c2c1
- IC50 (HeLa): 6.8 µM
- IC50 (Bel-7402): 1.6 µM
- IC50 (BGC-823): 7.1 µM
- IC50 (HepG2): 8.9 µM
- IC50 (A549): 3.4 µM
- IC50 (A-375): 7.3 µM
- IC50 [1]: 4.6 µM
- IC50 (HT-29): 3.2 µM
- IC50 (769-P): 8.2 µM
- IC50 (KB): 2.7 µM

Structure (SMILES): CCCCn1c2ccccc2c2ccnc(C)c21
- IC50 (HeLa): 102 µM
- IC50 (Bel-7402): 145 µM
- IC50 (BGC-823): 264 µM
- IC50 (HepG2): 145 µM

Structure (SMILES): CCCCOc1ccc2c3ccnc(/C=C/c4ccc([N+](=O)[O-])cc4)c3n(CCCc3ccccc3)c2c1
- IC50 (HeLa): > 200 µM
- IC50 (Bel-7402): > 200 µM
- IC50 (BGC-823): > 200 µM
- IC50 (HepG2): > 200 µM
- IC50 (A549): > 200 µM
- IC50 (A-375): > 200 µM
- IC50 [1]: > 200 µM
- IC50 (HT-29): > 200 µM
- IC50 (769-P): > 200 µM
- IC50 (KB): > 200 µM

Structure (SMILES): C(=C\c1nccc2c1[nH]c1ccccc12)/c1ccccc1
- IC50 (HeLa): 139 µM
- IC50 (Bel-7402): 190 µM
- IC50 (BGC-823): > 200 µM
- IC50 (HepG2): 171 µM
- IC50 (A549): 36.7 µM
- IC50 (A-375): 71.4 µM
- IC50 [1]: 37.5 µM
- IC50 (HT-29): 62.9 µM
- IC50 (769-P): 7.8 µM
- IC50 (KB): > 200 µM

Structure (SMILES): COc1ccc(/C=C/c2nccc3c2[nH]c2ccccc23)cc1
- IC50 (HeLa): 142 µM
- IC50 (Bel-7402): 118 µM
- IC50 (BGC-823): 167 µM
- IC50 (HepG2): 60.5 µM
- IC50 (A549): 47.1 µM
- IC50 (A-375): 42.2 µM
- IC50 [1]: 12.9 µM
- IC50 (HT-29): 21.3 µM
- IC50 (769-P): 25.6 µM
- IC50 (KB): 29.5 µM

Structure (SMILES): CCCCOc1ccc2c3cc[n+](Cc4ccccc4)c(/C=C/c4ccc([N+](=O)[O-])cc4)c3n(CCCc3ccccc3)c2c1
- IC50 (HeLa): 2.9 µM
- IC50 (Bel-7402): 1.5 µM
- IC50 (BGC-823): 4.1 µM
- IC50 (HepG2): 1.3 µM
- IC50 (A549): 2.8 µM
- IC50 (A-375): 4.5 µM
- IC50 [1]: 2.7 µM
- IC50 (HT-29): 2.5 µM
- IC50 (769-P): 3.1 µM
- IC50 (KB): 2.4 µM

Structure (SMILES): CC(=O)n1c2ccccc2c2ccnc(/C=C/c3ccc([N+](=O)[O-])cc3)c21
- IC50 (HeLa): > 200 µM
- IC50 (Bel-7402): > 200 µM
- IC50 (BGC-823): > 200 µM
- IC50 (HepG2): 197 µM
- IC50 (A549): > 200 µM
- IC50 (A-375): > 200 µM
- IC50 [1]: > 200 µM
- IC50 (HT-29): > 200 µM
- IC50 (769-P): > 200 µM
- IC50 (KB): > 200 µM

Structure (SMILES): O=[N+]([O-])c1ccc(/C=C/c2nccc3c4ccccc4n(CCCc4ccccc4)c23)cc1
- IC50 (HeLa): > 200 µM
- IC50 (Bel-7402): > 200 µM
- IC50 (BGC-823): > 200 µM
- IC50 (HepG2): > 200 µM
- IC50 (A549): > 200 µM
- IC50 (A-375): > 200 µM
- IC50 [1]: > 200 µM
- IC50 (HT-29): > 200 µM
- IC50 (769-P): > 200 µM
- IC50 (KB): > 200 µM

Structure (SMILES): COc1ccc(/C=C/c2c3[nH]c4ccccc4c3cc[n+]2Cc2ccccc2)cc1
- IC50 (HeLa): 32.1 µM
- IC50 (Bel-7402): 22.5 µM
- IC50 (BGC-823): 22.9 µM
- IC50 (HepG2): 9.6 µM
- IC50 (A549): 10.8 µM
- IC50 (A-375): 28.2 µM
- IC50 [1]: 10 µM
- IC50 (HT-29): 9.4 µM
- IC50 (769-P): 4.9 µM
- IC50 (KB): 17.9 µM

Structure (SMILES): Cc1nccc2c1[nH]c1ccccc12 [HARMAN]
- IC50 (HeLa): 186 µM
- IC50 (Bel-7402): 151 µM
- IC50 (BGC-823): 215 µM
- IC50 (HepG2): 115 µM

Structure (SMILES): CCCCn1c2ccccc2c2ccnc(/C=C/c3ccc(OC)cc3)c21
- IC50 (HeLa): 88.8 µM
- IC50 (Bel-7402): 29.7 µM
- IC50 (BGC-823): 141 µM
- IC50 (HepG2): 66 µM
- IC50 (A549): 38.1 µM
- IC50 (A-375): 59.5 µM
- IC50 [1]: 67.4 µM
- IC50 (HT-29): > 200 µM
- IC50 (769-P): 25.2 µM
- IC50 (KB): 30.1 µM

Structure (SMILES): COc1ccc(/C=C/c2c3c(cc[n+]2Cc2ccccc2)c2ccccc2n3CCCc2ccccc2)cc1
- IC50 (HeLa): 4.5 µM
- IC50 (Bel-7402): 2.9 µM
- IC50 (BGC-823): 0.46 µM
- IC50 (HepG2): 2.1 µM
- IC50 (A549): 3.9 µM
- IC50 (A-375): 0.68 µM
- IC50 [1]: 3.2 µM
- IC50 (HT-29): 4.3 µM
- IC50 (769-P): 4.6 µM
- IC50 (KB): 0.93 µM

Structure (SMILES): CCCCOc1ccc2c3ccnc(/C=C/c4ccc(OC)cc4)c3n(CCCc3ccccc3)c2c1
- IC50 (HeLa): 92.3 µM
- IC50 (Bel-7402): > 200 µM
- IC50 (BGC-823): > 200 µM
- IC50 (HepG2): 92.9 µM
- IC50 (A549): 78.6 µM
- IC50 (A-375): 64.3 µM
- IC50 [1]: 89.1 µM
- IC50 (HT-29): 54.3 µM
- IC50 (769-P): 62.9 µM
- IC50 (KB): 150 µM

Structure (SMILES): CCCCn1c2ccccc2c2cc[n+](Cc3ccccc3)c(/C=C/c3ccc(OC)cc3)c21
- IC50 (HeLa): 6.7 µM
- IC50 (Bel-7402): 7.7 µM
- IC50 (BGC-823): 21.8 µM
- IC50 (HepG2): 6.7 µM
- IC50 (A549): 9.1 µM
- IC50 (A-375): 8.4 µM
- IC50 [1]: 11.2 µM
- IC50 (HT-29): 7.8 µM
- IC50 (769-P): 5.1 µM
- IC50 (KB): 3.9 µM

Structure (SMILES): CC(=O)n1c2ccccc2c2cc[n+](Cc3ccccc3)c(/C=C/c3ccc([N+](=O)[O-])cc3)c21
- IC50 (HeLa): 14.4 µM
- IC50 (Bel-7402): 17.9 µM
- IC50 (BGC-823): 14.8 µM
- IC50 (HepG2): 5.2 µM
- IC50 (A549): 7.6 µM
- IC50 (A-375): 25.3 µM
- IC50 [1]: 28.6 µM
- IC50 (HT-29): 10.5 µM
- IC50 (769-P): 19.8 µM
- IC50 (KB): 15.4 µM

Structure (SMILES): COc1cc(/C=C/c2nccc3c2[nH]c2ccccc23)cc(OC)c1OC
- IC50 (HeLa): 50.5 µM
- IC50 (Bel-7402): 34.6 µM
- IC50 (BGC-823): 66.2 µM
- IC50 (HepG2): 32.2 µM
- IC50 (A549): 12.8 µM
- IC50 (A-375): 23.9 µM
- IC50 [1]: 14.4 µM
- IC50 (HT-29): 27.8 µM
- IC50 (769-P): 5.7 µM
- IC50 (KB): 24.6 µM

Structure (SMILES): COc1ccc(/C=C/c2nccc3c4ccccc4n(CCCc4ccccc4)c23)cc1
- IC50 (HeLa): > 200 µM
- IC50 (Bel-7402): > 200 µM
- IC50 (BGC-823): > 200 µM
- IC50 (HepG2): 186 µM
- IC50 (A549): 127 µM
- IC50 (A-375): > 200 µM
- IC50 [1]: 92.3 µM
- IC50 (HT-29): > 200 µM
- IC50 (769-P): 123 µM
- IC50 (KB): 58.9 µM

Structure (SMILES): Cc1nccc2c3ccccc3n(CCCc3ccccc3)c12
- IC50 (HeLa): > 1000 µM
- IC50 (Bel-7402): 449 µM
- IC50 (BGC-823): 987 µM
- IC50 (HepG2): 449 µM
